Data published in PubChem BioAssay (NCI).
Values joined by “and” are separate entries in the source; they are usually repeats but may differ in a detail not shown here. Equal entries are not always repeated.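 Method: 48-hour compound exposure of cells in 96-well plates, five concentrations, linear interpolation of endpoints. GI50 = concentration required for 50% inhibition of growth. TGI is the concentration that stops growth completely.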

Experiments:
Experiment in all cases: inhibition of tumour cell growth, NCI panel, 48 h
HOP-62 NSCLC = tested on: HOP-62 NSCLC
OVCAR-8 ovarian = tested on: OVCAR-8 ovarian
PC-3 prostate = tested on: PC-3 prostate
786-0 renal = tested on: 786-0 renal
SF-295 CNS = tested on: SF-295 CNS
M14 melanoma = tested on: M14 melanoma
SK-MEL-2 melanoma = tested on: SK-MEL-2 melanoma
HS 578T breast = tested on: HS 578T breast
SNB-75 CNS = tested on: SNB-75 CNS
SNB-19 CNS = tested on: SNB-19 CNS

| SMILES | GI50 (HOP-62 NSCLC) | TGI (HOP-62 NSCLC) | GI50 (OVCAR-8 ovarian) [µM] | TGI (OVCAR-8 ovarian) | GI50 (PC-3 prostate) [µM] | TGI (PC-3 prostate) | GI50 (786-0 renal) [µM] | TGI (786-0 renal) | GI50 (SF-295 CNS) [µM] | TGI (SF-295 CNS) | GI50 (M14 melanoma) [µM] | TGI (M14 melanoma) | GI50 (SK-MEL-2 melanoma) [µM] | TGI (SK-MEL-2 melanoma) [µM] | GI50 (HS 578T breast) [µM] | TGI (HS 578T breast) [µM] | GI50 (SNB-75 CNS) [µM] | TGI (SNB-75 CNS) | GI50 (SNB-19 CNS) [µM] | TGI (SNB-19 CNS) |
| --- | --- | --- | --- | --- | --- | --- | --- | --- | --- | --- | --- | --- | --- | --- | --- | --- | --- | --- | --- | --- |
| Cc1cn(Cc2ccccc2CCl)c(=O)n(Cc2ccccc2CCl)c1=O | 2.31 µM | 4.13 µM | 2.39 | 5.69 µM | 1.83 | 3.91 µM | 1.67 | 3.39 µM | 3.52 | 16.7 µM | 1.69 | 3.28 µM | 1.32 | 4.29 | 2.65 | 15.1 | 1.81 | 3.79 µM | 2.57 | 6.66 µM |
| CN(C)c1ncnc2c1ccn2C1OC(CO)C(O)C1O (configuration not stated) | 1.71 µM | > 100 µM | 0.89 | 6.81 µM | 0.477 | 11.5 µM | 3.98 | 97.8 µM | 6.48 | > 100 µM | 16.1 | > 100 µM | > 100 | > 100 | 2.71 | 40.2 | 1.64 | 22.5 µM | 44.5 | > 100 µM |
| Cc1ccc([N+](=O)[O-])c2c(NCCC[N+](C)(C)[O-])ccnc12 | – | > 100 µM | – | > 100 µM | – | > 100 µM | – | > 100 µM | – | > 100 µM | – | > 100 µM | – | > 100 | – | > 100 | – | > 100 µM | – | > 100 µM |
| COC(=O)Nc1nc2ccc(S(=O)(=O)c3ccc(NC(=O)Nc4cc(C(F)(F)F)ccc4F)cc3)cc2[nH]1 | > 25 µM | > 25 µM | > 25 | > 25 µM | > 25 | > 25 µM | > 25 | > 25 µM | > 25 | > 25 µM | > 25 | > 25 µM | > 25 | > 25 | > 25 | > 25 | > 25 | > 25 µM | > 25 | > 25 µM |
| Nc1cc(-c2ccccc2)n(C(=O)Nc2ccc(Oc3ccccc3)cc2)n1 | 30.2 µM | > 100 µM | 20.1 | 57.1 µM | > 100 | > 100 µM | 29.5 | > 100 µM | 40.2 | > 100 µM | > 100 | > 100 µM | > 100 | > 100 | 31.9 | > 100 | – | 3.04 µM | 91.5 | > 100 µM |
| O=C1OC(OC/C(Br)=C(/Br)COC2OC(=O)C(Cl)=C2Cl)C(Cl)=C1Cl (configuration not stated) | – | 28.8 µM | – | > 58 µM | – | 30.2 µM | – | 14.1 µM | – | 34.2 µM | – | 17.3 µM | – | 44.8 | – | 64.7 | – | 36 µM | – | 37 µM |
| CCC(=O)c1c(C(F)(F)F)n([O-])c2ccccc2[n+]1=O | 0.7 µM | 3.54 µM | 1.77 | > 32 µM | 0.629 | 5.34 µM | 1.66 | 8.17 µM | 1.59 | 7.29 µM | 1.7 | 6.19 µM | 14.9 | > 100 | 3.17 | 30.5 | 3.79 | 24.8 µM | 5.07 | 32.6 µM |
| COc1ccc2c(c1OC)C(=O)O[C@@H]2[C@H]1c2c(c(Br)c3c(c2OC)OCO3)CCN1C | 6.47 µM | 91.2 µM | 32.4 | > 100 µM | 9.11 | > 100 µM | 12 | > 100 µM | 10.8 | 47.4 µM | 3.3 | 25 µM | > 100 | > 100 | 31.4 | > 100 | 93.3 | > 100 µM | 75.9 | > 100 µM |
| CCN(CC)CCC(=O)O[C@H]1CC[C@H](CC(C)[C@H]2CC(=O)C(C)C=C(C)[C@H](OC(=O)CCN(CC)CC)C(OC)C(=O)[C@@H](C)CC(C)/C=C/C=C/C=C(C)C(OC)CC3CC[C@H](C)[C@](O)(O3)C(=O)C(=O)N3CCCCC3C(=O)O2)CC1OC (some centres not stated) | 0.00257 µM and 0.00547 µM | 1.73 µM and 2.75 µM | 0.00624 | 3.49 µM and 2.21 µM | 1.22 | 2.57 µM and 2.4 µM | – | 2.47 µM and 1.72 µM | 0.0016 | 1.46 µM and 1.98 µM | 0.871 | 2.62 µM and 2.2 µM | 0.359 | 1.91 | – | 2.28 | 0.1 | 1.77 µM and 0.55 µM | 0.0358 | 7.68 µM and 2.24 µM |
| CCCCN(CCCC)CCC(O)c1cc2ccc(C(F)(F)F)cc2c2cc(C(F)(F)F)ccc12 (configuration not stated) | 2.2 µM | 5.68 µM | 1.92 | 4.25 µM | 2.52 | 9.67 µM | 1.55 | 3.2 µM | 5.18 | 18 µM | 1.82 | 3.77 µM | 2.53 | 4.51 | 1.55 | 4.62 | 3.46 | 15 µM | 3.92 | 15.3 µM |
